From ChEMBL document CHEMBL1133786, “Synthesis and dopaminergic properties of the two enantiomers of 3-(3,4-dimethylphenyl)-1-propylpiperidine, a potent and selective dopamine D4 receptor ligand” (Bioorg Med Chem Lett, 2001) come the findings set out here.

Test [1] deals with D(1A) dopamine receptor (Bos taurus, UniProt Q95136). In words: Binding affinity for dopamine D1-like receptor labelled with [3H]SCH-23390 in retina. The format is tissue-based.
A short description of test [2]: Binding affinity for dopamine D4-like receptor labelled with [3H]YM-09151-2 in retina. Format: tissue-based, Bos taurus.
Test [3] can be described thus: Binding affinity for dopamine D2-D3 like receptor labelled with [3H]YM-09151-2 in striatum. The format is tissue-based, Bos taurus.

A value given as a limit tells only on which side of the number the result lay.

Sequence of D(1A) dopamine receptor (Q95136 whole entry): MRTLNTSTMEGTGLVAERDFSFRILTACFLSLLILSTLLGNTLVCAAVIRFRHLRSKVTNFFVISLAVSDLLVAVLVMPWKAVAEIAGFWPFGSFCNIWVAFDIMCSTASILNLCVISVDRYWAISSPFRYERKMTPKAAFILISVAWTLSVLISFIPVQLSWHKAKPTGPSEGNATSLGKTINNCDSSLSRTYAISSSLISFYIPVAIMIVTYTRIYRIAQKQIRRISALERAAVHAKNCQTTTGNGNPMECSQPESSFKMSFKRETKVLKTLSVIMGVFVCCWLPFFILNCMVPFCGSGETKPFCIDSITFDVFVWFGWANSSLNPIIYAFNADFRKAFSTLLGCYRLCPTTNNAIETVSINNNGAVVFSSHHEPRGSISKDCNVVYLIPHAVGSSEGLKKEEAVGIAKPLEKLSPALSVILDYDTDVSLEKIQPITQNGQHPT

Consider `CCCN1CCC[C@@H](c2ccc(C)c(C)c2)C1`, for which the Ki in test [1] was above 100000 nM; in test [2], 23 nM; in test [3], 5000 nM.

Regarding `CCCN1CCC[C@H](c2ccc(C)c(C)c2)C1`, the Ki was above 100000 nM in test [1], 4 nM in test [2] and above 100000 nM in test [3].

With `CCCN1CCCC(c2ccc(C)c(C)c2)C1` (centres undefined), the Ki in test [1] was above 100000 nM; in test [2], 10 nM; in test [3], 11000 nM.

Consider `CCCN1CCC[C@H](c2cccc(O)c2)C1`, for which the Ki in test [2] was 397 nM; in test [3], 404 nM.

As for `NCCc1ccc(O)c(O)c1` [DOPAMINE], the results for the Ki in test [2] and in test [3] were 15 nM and 130 nM, respectively.

`Cc1cccc(C(=O)NCN2CCN(c3ccccc3C#N)CC2)c1` [PD-168,077]: the Ki is 25 nM in test [2] and 18300 nM in test [3].

Regarding `CCCN1CCC[C@@H](c2cccc(O)c2)C1` [PRECLAMOL], the Ki came out at 187 nM in test [2] and 8 nM in test [3].

Turning to `CCCN1CCC[C@@H]2Cc3n[nH]cc3C[C@H]21` [QUINPIROLE], the inhibitory constant (Ki) in test [2] came out at 59 nM; in test [3], 241 nM.

As usually defined, the Ki is the equilibrium dissociation constant of an inhibitor or competing ligand from its target. A higher Ki goes with a looser hold on the target.
